System: murine breast cancer stem cells
Assay: Clonogenic ability of murine breast cancer stem cells (colony number)
Assay type: cell-based
Conditions: short, 24 hour exposure to the inhibitor; p<0.02, t test
Description: Many of these genes have been linked to self renewal and cancer. These include the insulin growth factor binding partner IGFBP3, the HOX family members HOXA3, HOXA5, ME1S1 as well as transcription factors like ETS1, ETS2, RUNX2 and STAT3. It was tested whether the transcription factor STAT3 is a bona fide cancer stem cell regulator. STAT3 plays a role in the maintenance of both ES cells and HSCs. […] Next, when we examined immunochemistry analysis of breast tumors the STAT3 positive cells tended to be concentrated on the invasive edge of the cancer and the protein was not seen in the more differentiated-looking cells in the interior parts of tumors. Finally, there are small molecule inhibitors of STAT3. Such inhibitors can be tested in cancer stem cell models. The effect of the STAT3 inhibitor cucurbitacin on the clonogenic ability of murine breast cancer stem cells was tested.

With cucurbitacin the “reduction of the number of colonies” value was ~50%.
